In US20260055106A1, “PARG INHIBITORY COMPOUND” (FORX THERAPEUTICS AG, priority 2021, published 2026):
Structures can show the parent of a compound that is named as a salt. Where two headings read alike, the source gives them in different places.

What was measured:
human PARG = biological target: T1, human PARG (Homo sapiens, UniProt Q86W56, A967T/C963S/D927K/H446G/I916T/L447S/L473S/M841I/N479S/R811K/S802A/S858P/T924D); test: PARG enzymatic IC50 assay; format: biochemical; details: 2 hours incubation with enzyme; substrate ADP-ribose-pNP; absorbance 405 nm; read-out: IC50 determined in PARG enzymatic assay (PARG protein and 2 hours incubation)
T1 construct: human PARG (448-976 [H446G, L447S, L473S, N479S, S802A, R811K, M8411, S858P, 1916T, T924D, D927K, C963S, A967T]); 6His-TwinStrep (protease-cleavable) (N, cleaved yes); host or cells: E. coli BL21 (DE3)
T1 sequence (Q86W56 446-976 H446G/L447S/L473S/N479S/S802A/R811K/M841I/S858P/I916T/T924D/D927K/C963S/A967T): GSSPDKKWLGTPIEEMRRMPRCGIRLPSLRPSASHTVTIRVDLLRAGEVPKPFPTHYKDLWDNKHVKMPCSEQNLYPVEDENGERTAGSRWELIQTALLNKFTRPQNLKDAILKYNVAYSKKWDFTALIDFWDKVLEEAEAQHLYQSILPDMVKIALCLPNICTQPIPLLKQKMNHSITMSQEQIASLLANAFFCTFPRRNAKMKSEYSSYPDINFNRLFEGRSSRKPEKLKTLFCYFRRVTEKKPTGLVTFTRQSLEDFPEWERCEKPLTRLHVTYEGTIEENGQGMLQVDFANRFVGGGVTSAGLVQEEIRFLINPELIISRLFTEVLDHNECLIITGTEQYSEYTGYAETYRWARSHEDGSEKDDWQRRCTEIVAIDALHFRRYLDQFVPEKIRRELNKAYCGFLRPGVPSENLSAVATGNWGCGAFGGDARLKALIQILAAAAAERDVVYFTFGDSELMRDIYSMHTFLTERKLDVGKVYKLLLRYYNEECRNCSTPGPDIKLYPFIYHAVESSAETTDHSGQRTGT
Protocol: A codon optimized gene encoding human PARG (448-976 [H446G, L447S, L473S, N479S, S802A, R811K, M8411, S858P, 1916T, T924D, D927K, C963S, A967T]) was synthesized by Genscript, and cloned into pET15b (NcoI/BamHI) with an N-terminal, Thrombin protease cleavable 6His-TwinStrep tag. Expression of the protein in E. coli BL21 (DE3) was induced by addition of 0.2 mM IPTG to a shake flask culture grown to OD600=0.8 at 37° C. Growth was allowed to continue at 30° C. for a further 20 hours before harvesting by centrifugation and storage of the cell pellet at −80° C. […]
PARG enzyme as incubated with compound or vehicle (DMSO) for 15 minutes or 2 hours in a 384 well plate. After adding the PARG substrate ADP-ribose-pNP, the plate was read for absorbance intensity at 405 nm. The vehicle (DMSO) with high absorbance intensity represents no inhibition of enzymatic reaction while the low control (no enzyme) with low absorbance intensity represents full inhibition of enzymatic reaction. […]
The protocol that was used for enzyme reaction and detection is as follows: • 1. […] Read the plate on a plate reader (e.g., Spark Tecan).

PARG = biological target: T2, PARG (Homo sapiens, UniProt Q86W56); test: Cellular PAR chain assay; format: cell-based; details: U2OS cells
T2 construct: endogenous in cells; host or cells: U2OS
T2 sequence (Q86W56 whole entry): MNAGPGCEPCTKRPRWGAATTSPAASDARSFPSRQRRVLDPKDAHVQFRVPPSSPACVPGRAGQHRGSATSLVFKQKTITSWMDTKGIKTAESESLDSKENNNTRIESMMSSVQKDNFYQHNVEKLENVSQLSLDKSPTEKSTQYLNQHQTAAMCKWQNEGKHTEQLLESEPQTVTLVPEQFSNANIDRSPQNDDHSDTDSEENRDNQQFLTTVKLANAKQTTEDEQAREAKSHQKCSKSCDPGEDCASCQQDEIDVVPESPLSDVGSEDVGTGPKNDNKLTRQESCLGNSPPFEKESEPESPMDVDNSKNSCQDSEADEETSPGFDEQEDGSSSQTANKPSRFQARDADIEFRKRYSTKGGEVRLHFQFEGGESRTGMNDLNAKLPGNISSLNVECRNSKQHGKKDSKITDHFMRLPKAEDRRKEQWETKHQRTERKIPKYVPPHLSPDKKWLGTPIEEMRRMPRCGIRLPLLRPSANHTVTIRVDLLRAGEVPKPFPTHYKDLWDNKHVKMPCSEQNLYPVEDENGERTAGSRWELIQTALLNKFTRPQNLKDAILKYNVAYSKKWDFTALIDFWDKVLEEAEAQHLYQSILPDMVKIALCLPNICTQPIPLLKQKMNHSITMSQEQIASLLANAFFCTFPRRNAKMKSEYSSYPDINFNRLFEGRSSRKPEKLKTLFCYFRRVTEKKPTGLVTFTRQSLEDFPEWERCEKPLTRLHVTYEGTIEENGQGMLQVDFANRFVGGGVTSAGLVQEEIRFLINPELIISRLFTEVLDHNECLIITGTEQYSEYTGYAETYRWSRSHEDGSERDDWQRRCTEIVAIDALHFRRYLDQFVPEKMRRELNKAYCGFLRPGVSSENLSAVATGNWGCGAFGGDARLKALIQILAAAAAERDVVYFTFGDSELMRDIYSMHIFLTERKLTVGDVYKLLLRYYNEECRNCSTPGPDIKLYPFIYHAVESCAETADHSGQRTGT
Protocol: The ability of compounds to inhibit PARG in response to DNA damage, was assessed with U2OS cells pretreated with the compounds for 1 hour, following a 1-hour treatment with or without the DNA alkylating agent temozolomide (TMZ). […] The cells were incubated for 2 hours at room temperature with a mouse monoclonal antibody against poly (ADP) ribose (PAR) polymer. The cells were washed and incubated with an anti-mouse Alexa-488 conjugated secondary antibody for 1 hour at room temperature. Propidium iodide staining was used to determine DNA content in the cells (staining at 4° C. overnight). The fluorescence intensity of the cells was assessed by flow cytometry (Cytoflex from Beckmann) and the percentage of PAR chain positive cells (gated in relation to TMZ+DMSO treated control) was determined. PAR chain positive cells % were fit against the concentration of the compound using a 4 parameter log-logistic function, generating PAR chain EC50 values: […]

NCI-H460 = test: Cellular viability assay (NCI-H460); format: cell-based; details: 96 hours incubation, Cell Titer-Glo, read-out: EC50 determined in NCIH-460 cells, Cellular viability assay
Protocol: (§1) NCI-H460 and MDA-MB-436 as PARG-inhibition sensitive cell lines, and U2OS as PARG-inhibition insensitive cell line, were plated at 1000 cells/well, 5000 cells/well and 2000 cells/well, respectively, in 96-well white plates with clear flat bottom. After 24 hours, the compounds were added with the Tecan digital dispenser (D300e), in duplicates. The outer wells of the plate were excluded. After 96 hours of incubation, 150 μl of the growth medium were removed and 50 μl of Cell Titer-Glo (Promega) were added per well. Following an incubation of 10 minutes, luminescence was read using a plate reader (Tecan) for NCI-H460 and U2OS cell lines, and a 2104 EnVision plate reader for MDA-MB-436. Averaged values of the samples were normalized to DMSO treated control samples. Curves were fit as % of the control vs. log of the compound concentration using a 4 parameter log-logistic function: […]

U2OS = test: Cellular viability assay (U2OS); format: cell-based; details: Homo sapiens, 96 hours incubation, Cell Titer-Glo, read-out: EC50 determined in U2OS cells, Cellular viability assay
Protocol: as §1

MDA-MB-436 = test: Cellular viability assay (MDA-MB-436); format: cell-based; details: Homo sapiens, 96 hours incubation, Cell Titer-Glo, read-out: EC50 determined in MDA-MB-436 cells, Cellular viability assay
Protocol: as §1

Kinetic solubility assay = format: physicochemical; details: buffer, aqueous buffer, kinetic from dmso stock, pH 7.4, shake flask, room temperature, HPLC-UV
Protocol: The Kinetic solubility assay employs the shake flask method followed by HPLC-UV analysis. For exemplary compounds, the kinetic solubility was measured according to the following protocol: • 1. Samples were weighed and dissolved in 100% DMSO to make a stock solution of 10 mM. About 100 μL of stock solution is needed to cover this assay. • 2. Test compounds and controls (10 mM in DMSO, 10 μL/tube) were added into the buffer (490 μL/well) which were placed in a Mini-UniPrep filter. The buffer was prepared as the customer's requirement. • 3. The kinetic solubility samples were vortexed for 2 minutes. • 4. The solubility solutions were shaked in an orbital shaker for 24 hr at room temperature. • 5. 200 μL of each solubility solution were transferd into a 96-deep well for analysis when the samples were directly filtered by the syringeless filter device. • 6. The test compound concentration of the filtrate were determined using HPLC-UV. • 7. Three UV standard solutions were injected into HPLC from low to high concentrations, followed by testing of the K.S. supernatant. Testing samples were injected in duplicate.

MDA-MB-436 tumor cells = test: Cell-derived xenograft (CDX) study, MDA-MB-436 xenograft model; format: in vivo, Mus musculus; details: BALB/c nude mice
Protocol: • Species: Mus musculus • Strain: BALB/c nude • Age: 6-9 weeks • Sex: Female • Body weight: 17-20 g • Animal supplier: Beijing Vital River Laboratory Animal Technology Co., Ltd • Certificate No: 20230209Abzz0619000498
The MDA-MB-436 tumor cells (ATCC, cat #HTB-130) were maintained in vitro as a monolayer culture in L-15 medium supplemented with 10% fetal bovine serum, 10 μg/mL Insulin, 16 μg/mL glutathione and 1% Antibiotic-Antimycotic at 37° C. in an atmosphere of 0% CO2 in air. The cells growing in an exponential growth phase were harvested and counted for tumor inoculation.
BALB/c nude female mice were inoculated subcutaneously at the right flank with MDA-MB-436 tumor cells (10×10^6/mouse) in 0.2 mL of PBS with Matrigel (1:1) for tumor development. The animals were randomized and the treatment was started on day 25 after tumor inoculation when the average tumor volume reached approximately 126 mm^3. Each group consisted of 10 tumor-bearing mice. The compound of formula (I) was administrated to the mice according to the predetermined regimen as shown in the experimental design table 3
Tumor sizes were measured twice weekly in two dimensions using a caliper, and the volumes were expressed in mm^3. The tumor sizes were then used for the calculations of TGI values.
TGI was calculated for each group using the formula: TGI (%)=[1−(Ti−T0)/(Vi−V0)]×100; Ti is the average tumor volume of a treatment group on a given day, T0 is the average tumor volume of the treatment group on the first day of treatment, Vi is the average tumor volume of the vehicle control group on the same day with Ti, and V0 is the average tumor volume of the vehicle group on the first day of treatment.
A one-way ANOVA was performed to compare the tumor volume among groups.

| IC50 (human PARG) [µM] | EC50 (PARG; with treatment of TMZ, read-out: EC50 determined in Cellular PAR chain assay (conditions with treatment of TMZ)) [µM] | EC50 (PARG; without treatment of TMZ, read-out: EC50 determined in Cellular PAR chain assay (conditions without treatment of TMZ)) [µM] | EC50 (NCI-H460; Homo sapiens, NCI-H460, 96 h) [µM] | EC50 (U2OS) [µM] | EC50 (MDA-MB-436) [µM] | solubility kinetic at 24 h (Kinetic solubility assay) [µM] | EC50 (NCI-H460; listed as 1b fraction B) [µM] | Compound | Tumor volume on day 28 (MDA-MB-436 tumor cells; 100 mg/kg PO QD x 28 days, Mean ± SEM) [mm^3] | TGI (MDA-MB-436 tumor cells; 100 mg/kg PO QD x 28 days, day 28) [%] | anti-tumor response (MDA-MB-436 tumor cells; 100 mg/kg, MDA-MB-436 xenograft) |
| --- | --- | --- | --- | --- | --- | --- | --- | --- | --- | --- | --- |
| 0.011 | < 0.003 | < 0.003 | < 0.019 | 11.9 | 0.017 | 152 |  | C[C@H]1CN(c2cc(S(=O)(=O)NC3(C)CC3)cn3c(-c4nnc(C(F)F)s4)ncc23)C[C@H](C)N1 [Example 1, 3-(5-(difluoromethyl)-1,3,4-thiadiazol-2-yl)-8-((3S,5S)-3,5-dimethylpiperazin-1-yl)-N-(1-methylcyclopropyl)imidazo[1,5-a]pyridine-6-sulfonamide formate] | 27 ± 9 | 118.20 | tumor regression seen in all mice |
|  |  |  | 0.021 | > 2 |  |  | 0.022 | C[C@H]1CN(c2cc(S(=O)(=O)NC3(C)CC3)cn3c(-c4nnc(C(F)F)s4)ncc23)C[C@H](C)N1 (single isomer, unassigned) [Example 1b] |  |  |  |
